Earlier results as cited in patent publication US12421495B2, “Compositions and methods for selective phagocytosis of human cancer cells” (THE TRUSTEES OF THE UNIVERSITY OF PENNSYLVANIA, priority 2015, dated 2025).

Tested on: tdTomato A549 tumors
Conditions: same tumor model; Nair et al. 2016

CC(=O)O[C@H]1C(=O)[C@@]2(C)[C@H]([C@H](OC(=O)c3ccccc3)[C@]3(O)C[C@H](OC(=O)[C@H](O)[C@@H](NC(=O)c4ccccc4)c4ccccc4)C(C)=C1C3(C)C)[C@]1(OC(C)=O)CO[C@@H]1C[C@@H]2O [Paclitaxel]
tumor shrinkage by day 10: −25%
